Reference: US9982019B2, “Glycopeptide compound or pharmaceutical salt thereof and method for preparing same, and pharmaceutical compositions and applications thereof” (priority 2012, dated 2018)
Counter-ions that a name gives are not always drawn.

How the values were obtained:
[1] = tested on: Feces enterococci (VSE clinical isolates: MEFA 0039); assay: In vitro antibacterial activity, agar two times dilution method, MIC; assay type: cell-based
From the text: (§1) Testing results of in vitro antibacterial activity of some target compounds of the present invention are as follows:
(§2) Drugs: firstly being dissolved in DMSO, and then being diluted to an appropriate concentration with sterile water, and afterwards successively being diluted for twice.
(§3) Determination: referencing the standard of CSSI 2008 version, using a agar two times dilution method, determine the minimum inhibitory concentration (MIC values).
(§4) Feces enterococci (VSE clinical isolates: MEFA 0039); Streptococcus pneumoniae (PISP: ATCC 49619).
(§5) 3. Positive Control Drug is Vancomycin Hydrochloride.

[2] = tested on: Streptococcus pneumoniae (PISP: ATCC 49619); assay: as above; assay type: cell-based
From the text: as §1, §2, §3, §4, §5

CC(C)CC1C(=O)N(C2C(=O)NC(CC(N)=O)C(=O)NC3C(=O)NC4C(=O)NC(C(=O)NC(C(=O)O)c5cc(O)c(CN6CCOCC6)c(O)c5-c5cc4ccc5O)C(OC4CC(C)(N)C(O)C(C)O4)c4ccc(c(Cl)c4)Oc4cc3cc(c4OC3OC(CO)C(O)C(O)C3OC3CC(C)(NCc4ccc(C(C)C)cc4)C(O)C(C)O3)Oc3ccc(cc3Cl)C2O)CN1C (stereo not shown) [II9]
MIC Values of Compounds, Enterococci ([1]; agar dilution, VSE clinical isolate MEFA 0039): 1 µg/mL
MIC Values of Compounds, Streptococcus pneumoniae ([2]; agar dilution, PISP ATCC 49619): 0.25 µg/mL

CN[C@H](CC(C)C)C(=O)N[C@H]1C(=O)N[C@@H](CC(N)=O)C(=O)N[C@H]2C(=O)N[C@H]3C(=O)N[C@H](C(=O)N[C@H](C(=O)O)c4cc(O)cc(O)c4-c4cc3ccc4O)[C@H](O)c3ccc(c(Cl)c3)Oc3cc2cc(c3O[C@@H]2O[C@H](CO)[C@@H](O)[C@H](O)[C@H]2O[C@H]2C[C@](C)(N)[C@H](O)[C@H](C)O2)Oc2ccc(cc2Cl)[C@H]1O [vancomycin hydrochloride, reference compound]
MIC ([1]; read-out: MIC Values of Compounds, Enterococci): 0.25 µg/mL
MIC ([2]; Streptococcus pneumoniae, ATCC49619, read-out: MIC Values of Compounds, Streptococcus pneumoniae): 0.125 µg/mL
